Results published in the NIST ThermoML archive (doi:10.1016/j.jct.2014.09.022).
Numbers after ± are expanded uncertainties.

Assays:
[1] = mn = molality of the nth substance listed, in mol/kg; details: 298.15 K, 100 kPa, Liquid; for viscosity: Capillary tube (Ostwald / Ubbelohde) method; for mass density: Vibrating tube method
[2] = refractive index (Na D-line) (dimensionless); mn = molality of the nth substance listed, in mol/kg; details: 298.15 K, 100 kPa, Liquid, Standard Abbe refractometry
[3] = refractive index (Na D-line) (dimensionless); details: 298.15 K; 100 kPa; Liquid; Standard Abbe refractometry
[4] = 298.15 K, 100 kPa, Liquid

CCCCCCn1cc[n+](C)c1.[Cl-] [1-hexyl-3-methylimidazolium chloride] + CC(=O)N(C)C
Details	mass density, [1] [kg/m3]	refractive index, [2]	viscosity, [1] [mPa·s]
m1 = 0.0226	936.94 ± 1	1.4283 ± 0.016	1.029 ± 0.022
m1 = 0.0468	937.6 ± 1	1.429 ± 0.016	1.042 ± 0.022
m1 = 0.06	937.96 ± 1	1.4295 ± 0.016	1.057 ± 0.023
m1 = 0.0797	938.48 ± 1	1.4297 ± 0.016	1.072 ± 0.023
m1 = 0.1002	939.02 ± 1	1.43 ± 0.016	1.087 ± 0.023
m1 = 0.1216	939.55 ± 1	1.4303 ± 0.016	1.106 ± 0.024
m1 = 0.141	940.04 ± 1	1.4307 ± 0.016	1.123 ± 0.024
m1 = 0.1621	940.56 ± 1	1.431 ± 0.016	1.129 ± 0.024
m1 = 0.1781	940.95 ± 1	1.4312 ± 0.016	1.137 ± 0.024
m1 = 0.2012	941.49 ± 1	1.432 ± 0.016	1.142 ± 0.024

C(=NCCN=Cc1ccccn1)c1ccccn1 [N,N'-bis(2-pyridinylmethylene)-1,2-ethanediamine] + CC(=O)N(C)C
Details	mass density, [1] [kg/m3]	refractive index, [2]	viscosity, [1] [mPa·s]
m1 = 0.0471	937.73 ± 1	1.4291 ± 0.016	1.035 ± 0.022
m1 = 0.091	939.12 ± 1	1.43 ± 0.016	1.069 ± 0.023
m1 = 0.1327	940.31 ± 1	1.4317 ± 0.016	1.082 ± 0.023
m1 = 0.1768	941.81 ± 1	1.433 ± 0.016	1.1 ± 0.024

CC(=O)N(C)C [N,N-dimethylethanamide]
Details	refractive index
[3]	1.4278 ± 0.016

[4]
Details	mass density [kg/m3]	viscosity [mPa·s]
Capillary tube (Ostwald / Ubbelohde) method	–	0.989 ± 0.021
Vibrating tube method	936.31 ± 1	–
